Experiments:
Assay type in all cases: functional, cell-based; call rule not given here
HeLa = test: Cytotoxicity against human HeLa cells after 48 hrs by MTT assay
HT-29 = test: Cytotoxicity against human HT-29 cells after 48 hrs by MTT assay; details: HT-29, 48 h
HCT-116 = test: Cytotoxicity against human HCT116 cells

SMILES | IC50 (HeLa) [µM] | IC50 (HT-29) [µM] | AC50 (HCT-116)
CCCCC(C)C1CC(O)CCC[C@H](O)C[C@@H](O)C[C@@H](O)CCCC(O)CCCC(O)CCCC(O)CCC[C@@H](O)C[C@@H](O)CCC/C(C)=C/C(=O)O1 (some centres undefined) [CAYLOBOLIDE B] | 12.2 | 4.5 | –
CCCCC(C)C1C[C@@H](O)CCC[C@H](O)C[C@@H](O)C[C@@H](O)CCCC(O)CCCC(O)CCCC(O)CCCC(O)CC(O)CCC/C(C)=C/C(=O)O1 (some centres undefined) [CAYLOBOLIDE A] | – | – | Active
CC[C@H](C)[C@@H]([C@@H](CC(=O)N1CCC[C@H]1[C@H](OC)[C@@H](C)C(=O)N[C@@H](Cc1ccccc1)c1nccs1)OC)N(C)C(=O)[C@@H](NC(=O)[C@H]([C@@H](C)CC)N(C)C)C(C)C [SYMPLOSTATIN 1] | – | 0.0015 | –

Source: ChEMBL document CHEMBL1221404, “Caylobolide B, a macrolactone from symplostatin 1-producing marine cyanobacteria Phormidium spp. from Florida” (J Nat Prod, 2010)
